Data taken from patent US20150292026A1, “METHYLATION MARKERS PREDICTIVE FOR DRUG RESPONSE” (MDxHEALTH SA, priority 2012, published 2015).
Where two headings read alike, the source gives them in different places.

Tests used:
[1] = tested on: patients with metastatic CRC; assay: CAIRO arm A: response to single agent irinotecan in second line by DCR1 methylation; format: in vivo, human; details: 65 patients from arm A, data not shown
[2] = tested on: patients with metastatic CRC; details: first-line therapy, discovery set; for HR (methylated vs unmethylated): PFS
[3] = tested on: patients with CRC (CAIROII); details: CAIRO II patients, estimate from literature; cited from earlier work
HCT116 cells = assay: Re-expression of DCR1 (qRT-PCR) in HCT116 after inhibition of DNA methyltransferases; format: cell-based, Human; details: HCT116 (65% methylated for DCR1), 5000 nM for 3 days, p=0.005
Experimental: To investigate re-expression of DCR1 after inhibition of DNA metyltransferases, HCT116 cells were treated with 5000 nM 5-aza-2′-deoxycytidine for 3 days (DAC, Sigma Chemical Co., St. Louis. Mo., USA).
Total RNA was isolated using TriZoI reagent (Invitrogen, Breda, The Netherlands), and subjected to purification using RNeasy Mini Kit (Qiagen). After DNAse treatment (RQI DNAse, Promega, Leiden, The Netherlands). cDNA was made with the Iscript cDNA Synthesis Kit (BioRad, Veenendaal, The Netherlands). Quantitative RT-PCR was done using TaqMan® Gene Expression Assays from Applied Biosystems directed to DCR1 (Hs00182570_m1) and B2M (Hs00984230_m1). Relative expression levels were determined by calculating the Ct-ratio (Ct ratio=2̂−(Ct DCR1−Ct B2M)).
Student's T-test was used for comparison of DCR1 expression levels before and after DAC and TSA treatment of HCT116.

For `CCc1c2c(nc3ccc(OC(=O)N4CCC(N5CCCCC5)CC4)cc13)-c1cc3c(c(=O)n1C2)COC(=O)[C@]3(O)CC` [irinotecan, Irinotecan], the “association of DCR1 methylation with response to single agent second-line therapy” value [1] was “a similar trend was observed, although not statistically significant”.
For `CCCCCOC(=O)Nc1nc(=O)n([C@@H]2O[C@H](C)[C@@H](O)[C@H]2O)cc1F` [Capecitabine], the “HR (methylated vs unmethylated)” value ([2]; BK methylation) was 1.1, the “HR (methylated vs unmethylated)” value ([2]; CAT methylation) was 0.9 and the “HR (methylated vs unmethylated)” value ([2]; CCND2 methylation) was 1.3. The “HR (methylated vs unmethylated)” value ([2]; CDK5 methylation) was 0.7, the “HR (methylated vs unmethylated)” value ([2]; DAPK1 methylation) was 1.0 and the “HR (methylated vs unmethylated)” value ([2]; DCR1 methylation) was 1.4. The “HR (methylated vs unmethylated)” value ([2]; EEF1A2 (1 assay methylation)) was 1.2, the “HR (methylated vs unmethylated)” value ([2]; EEF1A2 (2 assay methylation)) was 1.3 and the “HR (methylated vs unmethylated)” value ([2]; HOXA9 methylation) was 0.8. For the same compound, the “HR (methylated vs unmethylated)” value ([2]; IRAK1 methylation) was 1.6, the “HR (methylated vs unmethylated)” value ([2]; LIG4 methylation) was 1.2 and the “HR (methylated vs unmethylated)” value ([2]; NUDT1 methylation) was 1.5. For the same compound, the “HR (methylated vs unmethylated)” value ([2]; PAX3 (1) assay methylation) was 1.2, the “HR (methylated vs unmethylated)” value ([2]; PAX3 (2) assay methylation) was 1.3 and the “HR (methylated vs unmethylated)” value ([2]; PRKCB1 methylation) was 1.1. For the same compound, the “HR (methylated vs unmethylated)” value ([2]; PROK2 methylation) was 0.8, the “HR (methylated vs unmethylated)” value ([2]; PROP1 methylation) was 2.0 and the “HR (methylated vs unmethylated)” value ([2]; PTGS2 methylation) was 1.1. The “HR (methylated vs unmethylated)” value ([2]; RASSF1 methylation) was 1.2, the “HR (methylated vs unmethylated)” value ([2]; RBBP8 methylation) was 0.9 and the “HR (methylated vs unmethylated)” value ([2]; RHOB methylation) was 0.7. For the same compound, the “HR (methylated vs unmethylated)” value ([2]; SPO11 methylation) was 1.4, the “HR (methylated vs unmethylated)” value ([2]; TBX5 methylation) was 2.3 and the “HR (methylated vs unmethylated)” value ([2]; TIPARP methylation) was 0.9. The “Median PFS” value ([2]; BK methylated (M) tumours) was 149 days, the “Median PFS” value ([2]; BK unmethylated (U) tumours) was 188 days and the “Median PFS” value ([2]; CAT methylated (M) tumours) was 116 days. For the same compound, the “Median PFS” value ([2]; CAT unmethylated (U) tumours) was 190 days, the “Median PFS” value ([2]; CCND2 methylated (M) tumours) was 202 days and the “Median PFS” value ([2]; CCND2 unmethylated (U) tumours) was 156 days. For the same compound, the “Median PFS” value ([2]; CDK5 methylated (M) tumours) was 125 days, the “Median PFS” value ([2]; CDK5 unmethylated (U) tumours) was 191 days and the “Median PFS” value ([2]; DAPK1 methylated (M) tumours) was 144 days. The “Median PFS” value ([2]; DAPK1 unmethylated (U) tumours) was 188 days, the “Median PFS” value ([2]; DCR1 methylated (M) tumours) was 184 days and the “Median PFS” value ([2]; DCR1 unmethylated (U) tumours) was 178 days. For the same compound, the “Median PFS” value ([2]; EEF1A2 (1 assay methylated (M) tumours)) was 202 days, the “Median PFS” value ([2]; EEF1A2 (1 assay unmethylated (U) tumours)) was 168 days and the “Median PFS” value ([2]; EEF1A2 (2 assay methylated (M) tumours)) was 246 days. For the same compound, the “Median PFS” value ([2]; EEF1A2 (2 assay unmethylated (U) tumours)) was 177 days, the “Median PFS” value ([2]; HOXA9 methylated (M) tumours) was 168 days and the “Median PFS” value ([2]; HOXA9 unmethylated (U) tumours) was 191 days. For the same compound, the “Median PFS” value ([2]; IRAK1 methylated (M) tumours) was 216 days, the “Median PFS” value ([2]; IRAK1 unmethylated (U) tumours) was 130 days and the “Median PFS” value ([2]; LIG4 methylated (M) tumours) was 173 days. For the same compound, the “Median PFS” value ([2]; LIG4 unmethylated (U) tumours) was 190 days, the “Median PFS” value ([2]; NUDT1 methylated (M) tumours) was 187 days and the “Median PFS” value ([2]; NUDT1 unmethylated (U) tumours) was 99 days. For the same compound, the “Median PFS” value ([2]; PAX3 (1) assay methylated (M) tumours) was 189 days, the “Median PFS” value ([2]; PAX3 (1) assay unmethylated (U) tumours) was 126 days and the “Median PFS” value ([2]; PAX3 (2) assay methylated (M) tumours) was 187 days. The “Median PFS” value ([2]; PAX3 (2) assay unmethylated (U) tumours) was 127 days, the “Median PFS” value ([2]; PRKCB1 methylated (M) tumours) was 192 days and the “Median PFS” value ([2]; PRKCB1 unmethylated (U) tumours) was 168 days. For the same compound, the “Median PFS” value ([2]; PROK2 methylated (M) tumours) was 182 days, the “Median PFS” value ([2]; PROK2 unmethylated (U) tumours) was 179 days and the “Median PFS” value ([2]; PROP1 methylated (M) tumours) was 188 days. The “Median PFS” value ([2]; PROP1 unmethylated (U) tumours) was 99 days, the “Median PFS” value ([2]; PTGS2 methylated (M) tumours) was 202 days and the “Median PFS” value ([2]; PTGS2 unmethylated (U) tumours) was 168 days. The “Median PFS” value ([2]; RASSF1 methylated (M) tumours) was 209 days, the “Median PFS” value ([2]; RASSF1 unmethylated (U) tumours) was 164 days and the “Median PFS” value ([2]; RBBP8 methylated (M) tumours) was 191 days. The “Median PFS” value ([2]; RBBP8 unmethylated (U) tumours) was 177 days, the “Median PFS” value ([2]; RHOB methylated (M) tumours) was 112 days and the “Median PFS” value ([2]; RHOB unmethylated (U) tumours) was 188 days. For the same compound, the “Median PFS” value ([2]; SPO11 methylated (M) tumours) was 177 days, the “Median PFS” value ([2]; SPO11 unmethylated (U) tumours) was 190 days and the “Median PFS” value ([2]; TBX5 methylated (M) tumours) was 188 days. For the same compound, the “Median PFS” value ([2]; TBX5 unmethylated (U) tumours) was 65 days, the “Median PFS” value ([2]; TIPARP methylated (M) tumours) was 177 days and the “Median PFS” value ([2]; TIPARP unmethylated (U) tumours) was 187 days.
In the case of “bevacuzimab: targeted therapy directed against VEGF”, the “survival benefit from bevacizumab” value [3] is listed as “about two”.
For `Nc1ncn([C@H]2C[C@H](O)[C@@H](CO)O2)c(=O)n1` [5-aza-2′-deoxycytidine], the “DCR1 expression (qRT-PCR) after treatment” value (HCT116 cells) was “significant increased DCR1 expression”.
